# Tests used:
# [1] = tested on: carbonic anhydrase IX (CA IX); test: CA IX gene expression in SaOS-2 cells on discs (qRT-PCR); assay type: cell-based, human; conditions: normalized to GAPDH, 100 μM gallium nitrate
# Procedure: As a marker for the functional activity of the SaOS-2 cells, growing onto titanium discs, the expression of the two genes encoding for the enzymes carbonic anhydrase IX (CA IX) and alkaline phosphatase (ALP) was determined by quantitative qRT-PCR.
# (SEQ ID NO: 8). […] (SEQ ID NO. 10).
# [2] = tested on: alkaline phosphatase (ALP); conditions: normalized to GAPDH, 100 μM gallium nitrate
# Procedure: The expression values were normalized to the expression of GAPDH. […] The cultures were incubated at first in the absence of the MAC for 3 d; then they were transferred to medium, supplemented with the MAC, and the incubation was continue for additional 3 or 5 d, as outlined. Then the cells were harvested, RNA was extracted and subjected to qRT-PCR for determination of both CA IX and ALP transcripts; the expression of GAPDH served as reference. Data are expressed as mean values±SD for five independent experiments; each experiment was carried out in duplicate (* P<0.01). nd, not detectable.
# In parallel, the expression of the gene for the enzyme ALP was determined, likewise by qRT-PCR.
# Bone cell like SaOS-2 cells (human osteogenic sarcoma cells) are cultured in McCoy's medium (Biochrom-Seromed), supplemented with 2 mM L-glutamine, 10% or 15% heat-inactivated fetal calf serum (FCS), and 100 units/ml penicillin and 100 μg/ml streptomycin. The cells are incubated in 25-cm^2 flasks or in 6-well plates (surface area 9.46 cm^2; e.g. from Orange Scientifique) in a humidified incubator at 37° C. […]
# The quantitative real-time RT [reverse transcription]-PCR (qRT-PCR) technique is applied to determine the effect of the discs on the expression levels of the following genes in SaOS-2 cells. […] After determinations of the Ct values the expression of the respective transcripts are calculated.
smiles,measurement,setting,value
O=[N+]([O-])[O-].O=[N+]([O-])[O-].O=[N+]([O-])[O-].[Ga+3] [gallium nitrate],"CA IX expression, with Ga, −MAC 0 d",[1],0.24±0.05
same,"CA IX expression, with Ga, +MAC 5 d",[1]; 3 d −MAC then 5 d +MAC,0.89±0.11
same,"ALP expression, with Ga, −MAC 0 d",[2],0.027 ± 0.004
same,"ALP expression, with Ga, +MAC 5 d",[2]; 3 d −MAC then 5 d +MAC,0.111 ± 0.010

# From patent publication US20190083679A1, “Amorphous Inorganic Polyphosphate-Calcium-Phosphate And Carbonate Particles As Morphogenetically Active Coatings and Scaffolds” (NanotecMARIN GmbH, priority 2014, published 2019)
